Source: patent US12569465B2, “Method for activating follicles by means of using small-molecule compound, and preparation thereof” (TSINGTAO A-SMART MEDICAL TECHNOLOGY CO., LTD., priority 2020, dated 2026)

Experiments:
[1] = system: 10-12 month old C57bl/6 ovaries; test: Ovulation stimulation experiment in old mice; assay type: in vivo, mouse; details: 80 mg/kg intraperitoneal, 5 days, then PMSG/hCG
Experimental: 10-12 month old C57bl/6 […] were divided into experimental and control groups according to body weight, and the experimental group was weighed and injected intraperitoneally with 80 mg/kg of VCD, while the control group was given the same volume of saline. After 5 days of continuous administration, 5 units of PMSG were injected to the experimental group and the control group, and 10 IU of hCG was injected 48 hours later to induce secondary ovulation. Mice were executed 16 hours after hCG injection, and both oviducts were collected and placed in M2 dissecting solution (Cat #M7167, Sigma), and the oocyte-granulosa cell complexes were seen when cutting the dilated oviducts under a dissecting microscope. The granulosa cell complexes from each mouse were transferred to a droplet of hyaluronidase (Cat #90101, Fujifilm Irvine Scientific) and the number of eggs per mouse was counted under a microscope after the granulosa cells around the oocytes had been digested.
According to the method described in Example 1, 10-12 month old C57bl/6 […] were divided into experimental and control groups according to their body weight, and the experimental group was weighed and injected intraperitoneally with 80 mg/kg of VCD, while the control group was given the same volume of saline. […]

[2] = system: PD12 C57bl/6 female mice ovaries; test: Follicle development in neonatal mice in vivo; design: species or system mouse; details: 20 or 160 mg/kg intraperitoneal, 5 consecutive days, compared to saline control
Experimental: PD12 C57bl/6 mice in the same litter were divided into experimental and control groups according to body weight. The experimental mice were weighed and given either 20 mg/kg or 160 mg/kg of VCD by intraperitoneal injection, while the control mice were given the same volume of saline. After […] of continuous administration, the mice were executed and the ovaries were dissected to separate the adipose tissue under the microscope and fixed in 4% PFA. Dehydrated sections were used to observe and count the development of follicles in the ovaries at different times.
According to the method described in Example 1, the same litter of PD12 C57bl/6 female mice was divided into experimental and control groups according to body weight and given 20 mg/kg or 160 mg/kg of VCD by intraperitoneal injection, while the control mice were given the same volume of saline. Each group (N=6) was administered for 5 consecutive days, and then the mice were executed and the collected ovaries were stained to observe the morphology as shown in FIG. 3A (yellow arrows indicate early sinus follicles and red arrows indicate sinus follicles).

[3] = system: PD12 mouse ovaries (secondary follicles); test: In vitro culture of PD12 mouse ovaries, secondary follicle counting; assay type: cell-based; details: 4 days with VCD 1-1000 nM, compared to control group
Description: (§1) Neonatal 2-day (PD2) or 12-day (PD12) C57bl/6 mice (provided by Shandong University Experimental Animal Center) were executed by decapitation and the ovaries and surrounding tissues were dissected and separated under a dissecting microscope, and the excised ovaries were placed in Leibovitz's L-15 medium (containing 10% fetal bovine serum+0.5% penicillin+0.5% streptomycin). The adipose tissue was dissected and separated. The separated ovaries were washed three times in PBS.
(§2) Configure ovarian medium: 1 mg/ml bovine serum albumin (BSA, Cat #A4161-1G, Sigma), 1 mg/ml AbluMAX II Lipid-Rich BSA (Cat #11021029, Gibco), 5% Insulin-Transferrin-Selenium (ITS-G) (Cat #41400-045, Gibco), 0.5% Penicillin+0.5% Streptomycin and 100 nM VCD were added into DMEM/F12 (Cat #11039-021, Gibco) medium. The prepared medium was mixed and added to a six-well plate with 1.5 ml of medium per well. A sieve (Cat #PICMORG50, Millipore) was put on the medium and placed in the incubator to preheat.
(§3) The separated ovaries were transferred to the ovarian medium with a pipette, washed three times and placed on the upper sieve of the pre-warmed medium. A drop of medium was added around the ovaries in the upper sieve to keep the area around the ovaries moist. The six-well plates were placed in a 37° C., 5% CO2 incubator for four consecutive days, and the lower layer of medium was changed daily. […]

[4] = system: PD2 mouse ovaries (primordial follicles); test: In vitro culture of PD2 mouse ovaries, follicle counting; assay type: cell-based; details: VCD 1-1000 nM on first day of culture, then 3 days normal medium, compared with control group
Description: as §1, §2, §3

PI3K-Akt pathway = test: Western blot for phosphorylation of proteins associated with follicle activation in the ovary; assay type: cell-based; details: PD2 mouse ovaries; 10 nM VCD for 2-3 min in vitro
Experimental: PD2 mice were dissected in autopsy solution (Leibovitz's L-15 medium, […], Gibco; +10% fetal bovine serum (FBS)) after execution, washed twice in ovarian medium and incubated in ovarian medium. After incubation in medium with or without VCD for 3 min. ovarian tissue was collected and lysed in RIPA lysis solution (Cat #89900, Thermo) for digestion. Proteins were denatured and separated by SDS PAGE and transferred to PVDF membranes (Millipore). The membranes were incubated with primary antibodies followed by incubation with HRP-conjugated secondary antibodies and the bands were examined using an enhanced chemiluminescence detection kit (Bio-Rad).
(§4) anti-rabbit aromatase (Cat #NBP1-45360, Novus, 1:2000), anti-rabbit phosphor-AKT (Serine 473) (D9E) (Cat #4060, Cell Signaling, 1:500), anti-rabbit phosphor-FoxO1 (Threonine 24)/FoxO3a (Threonine 32) (Cat #9464, Cell Signaling, 1:500), anti-rabbit phosphor-P-S6 (Serine 235/236) (Cat #4858, Cell Signaling, 1:1000), anti-rabbit phosphor-P-S6 (Serine 240/244) (Cat #2215, Cell Signaling, 1:1000), anti-rabbit phosphor-P70S6k (Threonine 389) (Cat #9205, Cell Signaling, 1:1000), anti-rabbit (Cat #7074S, CST) or anti-mouse (Cat #7076S, CST).
Two-day-old (PD2) mouse ovaries were isolated and cultured in vitro according to the method described in Example 1. […]

aromatase [5] = test: Aromatase expression in primary mouse granulosa cells; assay type: cell-based; details: PD20 primary granulosa cells; VCD 1-1000 nM, 24 h
Description: as §4
Granulosa cells were isolated from the ovaries of PD20 mice according to the method described by Reddy P et al, Science 2008, 319(5863):611-613 and Liu Y X et al Biol Reprod 1986, 35(1):27-36, from which primary granulosa cell lines were obtained. They were treated with different concentrations of VCD (0, 1 nM, 10 nM, 100 nM, 1000 nM) for 24 h, using 50 ng/ml FSH as control.

KGN cells = test: Estradiol (E2) levels in KGN cell culture supernatants (ELISA); assay type: cell-based, human; details: 24 h, versus control group
Experimental: KGN cell supernatants were collected after 24 hours of cell culture for the detection of E2 levels. The procedure of the assay followed the instructions of the E2 Assay Kit (Human Estradiol (E2) ELISA Kit, Cat #KAQ0621, Invitrogen).
(§5) Human-derived granulocyte-like cell line KGN (provided by Prof. Toshihiko Yanase, Fukuoka University, Japan) was cultured in DMEM/F12 medium. KGN were treated with different concentrations of VCD (0, 1 nM, 10 nM, 100 nM, 1000 nM) for 24 h, using 50 ng/ml FSH as control.

aromatase [6] = test: Aromatase expression in KGN cells; assay type: cell-based, human; details: VCD 1-1000 nM, 24 h
Description: as §4, §5

[7] = system: primordial and primary follicles; details: rodents; prior studies; cited from earlier work

Question: For C1CC2OC2CC1C1CO1 (stereo not shown) [VCD, 4-vinylcyclohexene diepoxide], which “follicle counts (sinus follicles, corpus luteum) in ovaries” value [1] is on record?
Answer: more sinus follicles as well as newly formed corpus luteum

Question: What about the MII oocytes ovulated ([1]; versus saline control) of the same compound?
Answer: more oocytes

Question: What about the “follicles close to the preovulatory stage in the ovaries” value [2] of the same compound?
Answer: more follicles close to the preovulatory stage

Question: What about the “number of secondary follicles” value [3] of the same compound?
Answer: significantly increased

Question: And the “number of primordial follicles and early primary follicles” value [4]?
Answer: significantly increased

Question: What about the “activation of PI3K-Akt pathway (phosphorylation of involved proteins, Western blot)” value (PI3K-Akt pathway) of the same compound?
Answer: significantly activate

Question: And the “expression level of aromatase in mouse granulosa cells” value (aromatase [5])?
Answer: significantly increased

Question: And the “level of estrogen (E2) in cell supernatant” value (KGN cells)?
Answer: significantly higher

Question: And the “expression level of aromatase in KGN” value (aromatase [6])?
Answer: significantly increased

Question: What about the ovotoxicity to follicles [7] of the same compound?
Answer: induces atretic degeneration of primordial and primary follicles
